Here are results for 6 compounds from patent US5516803A, “Composition comprising a tramadol material and a non-steroidal anti-inflammatory drug” (priority 1995, dated 1996).

The subject of data set [1] is acetylcholine-induced abdominal constriction. Put plainly: prevention of acetylcholine-induced abdominal constriction in mice (analgesic activity, oral). It counts as in vivo, male CD1 mice. The protocol:
[…]. The mice were all dosed orally with tramadol hydrochloride (calculated as the base), which was completely dissolved in distilled water, and ibuprofen (calculated as the base), which was completely dissolved in distilled water or in distilled water containing 2% by volume of Tween 80 containing 100% polysorbate 80. The dosing volume was 10 mL/kg.
The procedure used in detecting and comparing the analgesic activity of different classes of analgesic drugs for which there is a good correlation with human efficacy is the prevention of acetylcholine-induced abdominal constriction in mice (H. Collier et al., Br. J. Pharmacol., 32, 295 (1968)).
Mice, incubated with various doses of tramadol hydrochloride alone, ibuprofen alone, combined doses of tramadol hydrochloride and ibuprofen, or vehicle such as distilled water, or distilled water containing 2% by volume of Tween 80, were injected intraperitoneally with a challenge dose of acetylcholine bromide. […]. The mice were observed 10 minutes for the presence or absence of the abdominal constriction response beginning immediately after receiving the acetylcholine dose, which was 30 minutes after receiving the oral administration of tramadol hydrochloride,ibuprofen, combined doses of tramadol hydrochloride and ibuprofen, or vehicle. Each mouse was used only once.
The analysis of possible superadditivity for the compositions at each fixed ratio was determined as disclosed by R. J. Tallarida et al., Life Sci., 45, 947 (1989). This procedure involved the determination of the total amount in the mixture that is required to produce a specified level of effect, such as 50% (ED50mix), and the corresponding total amount that would be expected under simple additivity (ED50add). Where it was established that ED50mix <ED50add for a specific fixed-ratio, then that composition ratio was superadditive. Both the quantities ED50mix and ED50add were random variables; ED50mix was estimated from the dose-response curve for a specific fixed-ratio; ED50add was obtained by combining the ED50 estimates for the two drugs under additivity. ED50mix was then compared to ED50add via a Student's t-test. […]. The interaction between tramadol and ibuprofen was determined at precise dosage ratios of tramadol hydrochloride and ibuprofen. Multiple (typically 4-6) coded doses of each selected combination were studied for analgesic effectiveness after 30 minutes using an experimental design which permitted the complete randomization of the separate dosage forms tested.
In FIG. 1, the diagonal line joining the ED50 values of the two drugs given separately represents the simple additivity of effects at different component ratios. The dotted lines adjacent to the diagonal line define the 95% confidence interval. ED50 values falling under the curve (between the line and the origin) indicate superadditivity, i.e., unexpected enhancement of effects. The diagonal dashed lines radiating from the origin represent the dose ratios of ibuprofen to tramadol hydrochloride used in mice receiving the combined drug dosages. The bars through the ED50 points for the tramadol and ibuprofen composition represent the 95% confidence intervals of the ED50 value. […]

For data set [2] the following is noted: cited from earlier work; for opioid side effects: Goodman and Gilman's, 8th edition; for intensity of pain relieved / tolerance, addiction and toxicity: compared with opioid analgesics.

A word on the ED50: it is the midpoint of the dose-response relation.

`COc1cccc(C2(O)CCCCC2CN(C)C)c1` (single isomer, unassigned) [tramadol, (1R, 2R or 1S, 2S)-2-[(dimethylamino)methyl]-1-(3-methoxyphenyl)cyclohexanol]: the “ED50 value for drug alone” value in data set [1] (drug alone, oral, 30 min, range in parentheses 95% CI) is on record as 5.5(4.8-6.4) mg/kg. The “ED50 at 30 min (95% CI's), Tramadol” value in data set [1] (p.o., tramadol component (calculated as base), Table I) is 5.5 mg/kg.
For the compound `COc1ccc2c3c1O[C@H]1[C@@H](O)C=C[C@H]4[C@@H](C2)N(C)CC[C@@]341` [codeine], in data set [2], the opioid side effects entry is “respiratory depression, constipation, tolerance and abuse liability”.
For the compound `COc1ccc2c3c1O[C@H]1C(=O)CC[C@H]4[C@@H](C2)N(C)CC[C@]314` [hydrocodone], in data set [2], the opioid side effects entry is “respiratory depression, constipation, tolerance and abuse liability”.
For `CC(=O)Oc1ccccc1C(=O)O` [aspirin], in data set [2], the “intensity of pain relieved” value is recorded as “only useful in relieving pain of moderate intensity”; the “tolerance, addiction and toxicity” value is “not subject to the tolerance, addiction and toxicity of the opioid analgesics”.
Regarding `CC(C)Cc1ccc(C(C)C(=O)O)cc1` (stereo not drawn) [ibuprofen, 2-(p-isobutylphenyl)propionic acid], in data set [2], the “intensity of pain relieved” value is “only useful in relieving pain of moderate intensity”. Further, the “tolerance, addiction and toxicity” value in data set [2] was “not subject to the tolerance, addiction and toxicity of the opioid analgesics”. In addition, the ED50 in data set [1] (Mus musculus, 0.5 h, drug alone, oral, 30 min, range in parentheses 95% CI) is 33.5 mg/kg. For the same compound, the analgesia in data set [1] (tramadol 0, ibuprofen 10 mg/kg, p.o., 30 min) is 2/15; in data set [1] (tramadol 0, ibuprofen 20 mg/kg, p.o., 30 min) it was 4/15; in data set [1] (tramadol 0, ibuprofen 40 mg/kg, p.o., 30 min), 8/15; in data set [1] (tramadol 0, ibuprofen 80 mg/kg, p.o., 30 min) it was 13/15; in data set [1] (tramadol 0, ibuprofen 160 mg/kg, p.o., 30 min), 14/15.
With `COc1ccc2c3c1O[C@H]1C(=O)CC[C@@]4(O)[C@@H](C2)N(C)CC[C@]314` [oxycodone], the opioid side effects result in data set [2] was “respiratory depression, constipation, tolerance and abuse liability”.
